Data from US9394264B2 (Receptos, Inc., priority 2009, dated 2016).

molecular target: S1P1/EDG1 (Homo sapiens, UniProt P21453); test: S1P1 CRE-bla CHOK1 reporter assay (inhibition of Forskolin induced cAMP); format: cell-based; settings: agonist activity range, S1P1 CRE-bla CHOK1 cells, 2 μM Forskolin; read-out: S1P1 ACTIVITY
Text: A mammalian expression plasmid containing S1P1/EDG1 cloned into pcDNA3.1 was purchased from Missouri S&T cDNA Resource Centre. The nucleotide and amino acid sequence of human S1P1/EDG1 are published in Hla and Maciag (J Biol Chem, 265(1990), 9308-9313). S1P1/pcDNA3.1 was transfected into the CRE-bla CHO K1 (Invitrogen) cell line, and stable single cell clones were selected using standard techniques. Expression of functional S1P1/EDG1 receptor was confirmed by cell surface FACS with a S1P1 antibody (R&D Systems, clone 218713) and S1P-mediated inhibition of Forskolin induced cAMP.
Cells were seeded into 384-well black wall/clear bottom plates at 10^4 cells/well/19.5 μl assay media (DMEM-phenol free, 0.5% charcoal/dextran stripped serum, 2 mM glutamine, 0.1 mM NEAA, 1 mM Na-Pyruvate, 25 mM Hepes) and incubated for 18 hrs at 37° C. in 5% CO2. Dose response curves (10-point) were generated in 10 mM Hepes, 0.1% Pluronic F127, in the presence of Forskolin. Cells were treated with 0.5 μl compound in the presence of 2 μM Forskolin for 4 hrs at 37° C. The FRET-based β-lactamase fluorescent substrate (LiveBLAzer™-FRET B/G Loading Kit CC4-AM; Invitrogen) was prepared according to manufacturer's directions, and incubated with cells for 2 hrs at room temperature. Plates were read at Ex:410/Em:458 and Ex:410/Em:522, and the response ratio determined. Data was analyzed by non-linear regression to determine the EC50 for inhibition of Forskolin induced cAMP.

S1P1/EDG1, sequence (P21453 whole entry): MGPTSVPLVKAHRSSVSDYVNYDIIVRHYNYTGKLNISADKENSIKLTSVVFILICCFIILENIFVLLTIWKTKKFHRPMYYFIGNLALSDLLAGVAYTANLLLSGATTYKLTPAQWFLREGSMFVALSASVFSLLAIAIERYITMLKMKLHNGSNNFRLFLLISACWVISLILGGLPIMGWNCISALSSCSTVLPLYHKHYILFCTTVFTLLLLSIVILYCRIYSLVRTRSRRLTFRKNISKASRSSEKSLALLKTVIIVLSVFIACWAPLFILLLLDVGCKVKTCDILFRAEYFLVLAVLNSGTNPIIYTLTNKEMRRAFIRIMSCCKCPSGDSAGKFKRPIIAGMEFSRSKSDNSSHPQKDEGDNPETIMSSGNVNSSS

Structure (SMILES)	EC50 [nM]
CC(C)Oc1ccc(-c2nc(-c3cccc4c3CCC[C@H]4O)no2)cc1C#N [Compound 1, (R)-5-(3-(5-hydroxy-5,6,7,8-tetrahydronaphthalen-1-yl)-1,2,4-oxadiazol-5-yl)-2-isopropoxybenzonitrile]	0.05 to 0.5
CC(C)Oc1ccc(-c2nc(-c3cccc4c3CCC[C@@H]4O)no2)cc1C#N [Compound 2, (S)-5-(3-(5-hydroxy-5,6,7,8-tetrahydronaphthalen-1-yl)-1,2,4-oxadiazol-5-yl)-2-isopropoxybenzonitrile]	< 0.05
CC(C)Oc1ccc(-c2nc(-c3cccc4c3CCC[C@H]4N)no2)cc1C#N [Compound 3, (R)-5-(3-(5-amino-5,6,7,8-tetrahydronaphthalen-1-yl)-1,2,4-oxadiazol-5-yl)-2-isopropoxybenzonitrile]	0.5 to 5
CC(C)Oc1ccc(-c2nc(-c3cccc4c3CCC[C@@H]4N)no2)cc1C#N [Compound 4, (S)-5-(3-(5-amino-5,6,7,8-tetrahydronaphthalen-1-yl)-1,2,4-oxadiazol-5-yl)-2-isopropoxybenzonitrile]	0.05 to 0.5
CC(C)Oc1ccc(-c2nc(-c3cccc4c3CCC[C@H]4NC(=O)N(C)C)no2)cc1C#N [Compound 5]	0.05 to 0.5
CC(C)Oc1ccc(-c2nc(-c3cccc4c3CCC[C@@H]4NC(=O)N(C)C)no2)cc1C#N [Compound 6]	0.05 to 0.5
CC(C)Oc1ccc(-c2nc(-c3cccc4c3CCC[C@H]4NC(=O)N3CC(O)C3)no2)cc1C#N [Compound 7, (R)-N-(5-(5-(3-cyano-4-isopropoxyphenyl)-1,2,4-oxadiazol-3-yl)-1,2,3,4-tetrahydronaphthalen-1-yl)-3-hydroxyazetidine-1-carboxamide]	0.05 to 0.5
CC(C)Oc1ccc(-c2nc(-c3cccc4c3CCC[C@@H]4NC(=O)N3CC(C(=O)O)C3)no2)cc1C#N [Compound 9]	0.05 to 0.5
CC(C)Oc1ccc(-c2nc(-c3cccc4c3CCC[C@H]4NC(=O)N3CC(C(=O)O)C3)no2)cc1C#N [Compound 10]	0.05 to 0.5
CC(C)Oc1ccc(-c2nc(-c3cccc4c3CCC[C@H]4NC(=O)N3CCCC3)no2)cc1C#N [Compound 11]	0.05 to 0.5
CC(C)Oc1ccc(-c2nc(-c3cccc4c3CCC[C@@H]4NC(=O)N3CCCC3)no2)cc1C#N [Compound 12, (S)-N-(5-(5-(3-cyano-4-isopropoxyphenyl)-1,2,4-oxadiazol-3-yl)-1,2,3,4-tetrahydronaphthalen-1-yl)pyrrolidine-1-carboxamide]	0.05 to 0.5
CC(C)Oc1ccc(-c2nc(-c3cccc4c3CCC[C@@H]4NC(=O)N3CC[C@H](O)C3)no2)cc1C#N [Compound 14]	0.05 to 0.5
CC(C)Oc1ccc(-c2nc(-c3cccc4c3CCC[C@@H]4NC(=O)N3CCOCC3)no2)cc1C#N [Compound 15, (S)-N-(5-(5-(3-cyano-4-isopropoxyphenyl)-1,2,4-oxadiazol-3-yl)-1,2,3,4-tetrahydronaphthalen-1-yl)morpholine-4-carboxamide]	0.05 to 0.5
CC(C)Oc1ccc(-c2nc(-c3cccc4c3CCC[C@H]4NC(=O)N3CCOCC3)no2)cc1C#N [Compound 16]	0.5 to 5
CC(C)Oc1ccc(-c2nc(-c3cccc4c3CCC[C@@H]4NC(=O)N3CCC[C@H](O)C3)no2)cc1C#N [Compound 17]	0.5 to 5
CC(C)Oc1ccc(-c2nc(-c3cccc4c3CCC[C@H]4NC(=O)N3CCC[C@H](O)C3)no2)cc1C#N [Compound 18]	0.5 to 5
CC(C)Oc1ccc(-c2nc(-c3cccc4c3CCC[C@H]4NC(=O)N3CCC(O)CC3)no2)cc1C#N [Compound 19]	0.5 to 5
CC(C)Oc1ccc(-c2nc(-c3cccc4c3CCC[C@H]4NC(=O)N3CC[C@@H](N(C)C)C3)no2)cc1C#N [Compound 20, (R)-N-((R)-5-(5-(3-cyano-4-isopropoxyphenyl)-1,2,4-oxadiazol-3-yl)-1,2,3,4-tetrahydronaphthalen-1-yl)-3-(dimethylamino)pyrrolidine-1-carboxamide]	0.5 to 5
CC(=O)N[C@@H]1CCCc2c(-c3noc(-c4ccc(OC(C)C)c(C#N)c4)n3)cccc21 [Compound 21, (R)-N-(5-(5-(3-cyano-4-isopropoxyphenyl)-1,2,4-oxadiazol-3-yl)-1,2,3,4-tetrahydronaphthalen-1-yl)acetamide]	0.05 to 0.5
CC(=O)N[C@H]1CCCc2c(-c3noc(-c4ccc(OC(C)C)c(C#N)c4)n3)cccc21 [Compound 22, (S)-N-(5-(5-(3-cyano-4-isopropoxyphenyl)-1,2,4-oxadiazol-3-yl)-1,2,3,4-tetrahydronaphthalen-1-yl)acetamide]	0.05 to 0.5

Structure (SMILES)	EC50 [nM]
COCC(=O)N[C@@H]1CCCc2c(-c3noc(-c4ccc(OC(C)C)c(C#N)c4)n3)cccc21 [Compound 23]	0.5 to 5
COCC(=O)N[C@H]1CCCc2c(-c3noc(-c4ccc(OC(C)C)c(C#N)c4)n3)cccc21 [Compound 24]	0.05 to 0.5
CC(C)Oc1ccc(-c2nc(-c3cccc4c3CCC[C@H]4NC(=O)CN(C)C)no2)cc1C#N [Compound 25]	0.5 to 5
CC(C)Oc1ccc(-c2nc(-c3cccc4c3CCC[C@H]4NS(N)(=O)=O)no2)cc1C#N [Compound 26, (R)-N-(5-(5-(3-cyano-4-isopropoxyphenyl)-1,2,4-oxadiazol-3-yl)-1,2,3,4-tetrahydronaphthalen-1-yl)sulfamide]	0.05 to 0.5
CC(C)Oc1ccc(-c2nc(-c3cccc4c3CCC[C@@H]4NS(N)(=O)=O)no2)cc1C#N [Compound 27, (S)-N-(5-(5-(3-cyano-4-isopropoxyphenyl)-1,2,4-oxadiazol-3-yl)-1,2,3,4-tetrahydronaphthalen-1-yl)sulfamide]	< 0.05
CC(C)Oc1ccc(-c2nc(-c3cccc4c3CCC[C@H]4NS(C)(=O)=O)no2)cc1C#N [Compound 28, (R)-N-(5-(5-(3-cyano-4-isopropoxyphenyl)-1,2,4-oxadiazol-3-yl)-1,2,3,4-tetrahydronaphthalen-1-yl)methanesulfonamide]	0.05 to 0.5
CC(C)Oc1ccc(-c2nc(-c3cccc4c3CCC[C@H]4NS(=O)(=O)C3CC3)no2)cc1C#N [Compound 30]	0.05 to 0.5
CC(C)Oc1ccc(-c2nc(-c3cccc4c3CCC[C@@H]4NS(=O)(=O)C3CC3)no2)cc1C#N [Compound 31]	0.5 to 5
COCCS(=O)(=O)N[C@@H]1CCCc2c(-c3noc(-c4ccc(OC(C)C)c(C#N)c4)n3)cccc21 [Compound 32, (R)-N-(5-(5-(3-cyano-4-isopropoxyphenyl)-1,2,4-oxadiazol-3-yl)-1,2,3,4-tetrahydronaphthalen-1-yl)-2-methoxyethanesulfonamide]	0.05 to 0.5
CC(C)Oc1ccc(-c2nc(-c3cccc4c3CCC[C@H]4NS(=O)(=O)CC(=O)O)no2)cc1C#N [Compound 34, (R)-2-(N-(5-(5-(3-cyano-4-isopropoxyphenyl)-1,2,4-oxadiazol-3-yl)-1,2,3,4-tetrahydronaphthalen-1-yl)sulfamoyl)acetic acid]	< 0.05
CC(C)Oc1ccc(-c2nc(-c3cccc4c3CCC[C@@H]4NS(=O)(=O)CC(=O)O)no2)cc1C#N [Compound 35, (S)-2-(N-(5-(5-(3-cyano-4-isopropoxyphenyl)-1,2,4-oxadiazol-3-yl)-1,2,3,4-tetrahydronaphthalen-1-yl)sulfamoyl)acetic acid]	< 0.05
CC(C)Oc1ccc(-c2nc(-c3cccc4c3CCC[C@@H]4NS(=O)(=O)CCO)no2)cc1C#N [Compound 36, (S)-N-(5-(5-(3-cyano-4-isopropoxyphenyl)-1,2,4-oxadiazol-3-yl)-1,2,3,4-tetrahydronaphthalen-1-yl)-2-hydroxyethanesulfonamide]	< 0.05
CC(C)Oc1ccc(-c2nc(-c3cccc4c3CCC[C@@H]4NS(=O)(=O)CC(N)=O)no2)cc1C#N [Compound 38]	< 0.05
CC(C)Oc1ccc(-c2nc(-c3cccc4c3CCC[C@H]4NS(=O)(=O)CC(N)=O)no2)cc1C#N [Compound 39]	< 0.05
CC(C)Oc1ccc(-c2nc(-c3cccc4c3CCC[C@H]4NS(=O)(=O)CC(=O)N(C)C)no2)cc1C#N [Compound 40, (R)-2-(N-(5-(5-(3-cyano-4-isopropoxyphenyl)-1,2,4-oxadiazol-3-yl)-1,2,3,4-tetrahydronaphthalen-1-yl)sulfamoyl)-N,N-dimethylacetamide]	< 0.05
CC(C)Oc1ccc(-c2nc(-c3cccc4c3CCC[C@@H]4NS(=O)(=O)CC(=O)N(C)C)no2)cc1C#N [Compound 41, (S)-2-(N-(5-(5-(3-cyano-4-isopropoxyphenyl)-1,2,4-oxadiazol-3-yl)-1,2,3,4-tetrahydronaphthalen-1-yl)sulfamoyl)-N,N-dimethylacetamide]	< 0.05
CC(C)Oc1ccc(-c2nc(-c3cccc4c3CCC[C@@H]4NS(=O)(=O)CC(=O)N3CCC3)no2)cc1C#N [Compound 42]	< 0.05
CC(C)Oc1ccc(-c2nc(-c3cccc4c3CCC[C@H]4NS(=O)(=O)CC(=O)N3CCC3)no2)cc1C#N [Compound 43]	< 0.05
CC(C)Oc1ccc(-c2nc(-c3cccc4c3CCC[C@H]4NS(=O)(=O)CCN(C)C)no2)cc1C#N [Compound 44, (R)-N-(5-(5-(3-cyano-4-isopropoxyphenyl)-1,2,4-oxadiazol-3-yl)-1,2,3,4-tetrahydronaphthalen-1-yl)-2-(dimethylamino)ethanesulfonamide]	0.05 to 0.5
